{"source": "paper PMC6434189", "about": "“Peperomin E and its orally bioavailable analog induce oxidative stress-mediated apoptosis of acute myeloid leukemia progenitor cells by targeting thioredoxin reductase” (Redox Biology, 2019)", "key": {"[1]": {"target": "T1, Sec residue in TrxR1 (Homo sapiens, UniProt Q16881)", "T1 construct": "purchased Abcam ab204206", "T1 sequence (Q16881 1-499 isoform Q16881-5)": "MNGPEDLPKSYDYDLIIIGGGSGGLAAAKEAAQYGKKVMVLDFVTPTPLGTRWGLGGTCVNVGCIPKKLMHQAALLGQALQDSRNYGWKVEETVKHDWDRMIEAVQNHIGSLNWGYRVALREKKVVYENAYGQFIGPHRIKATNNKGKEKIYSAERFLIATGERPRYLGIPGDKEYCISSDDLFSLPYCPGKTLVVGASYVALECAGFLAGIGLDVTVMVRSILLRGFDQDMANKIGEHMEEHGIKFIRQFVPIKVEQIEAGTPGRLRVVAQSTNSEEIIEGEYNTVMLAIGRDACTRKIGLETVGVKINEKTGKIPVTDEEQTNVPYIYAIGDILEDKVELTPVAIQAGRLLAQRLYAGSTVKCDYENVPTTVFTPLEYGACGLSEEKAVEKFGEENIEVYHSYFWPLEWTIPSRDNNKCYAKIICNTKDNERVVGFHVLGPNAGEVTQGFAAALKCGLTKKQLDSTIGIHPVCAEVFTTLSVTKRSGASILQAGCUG", "test": "BIAM labeling assay", "assay_type": "biochemical", "settings": "pH 6.5; PepE 1, 5, 10 μM; DNCB 5 μM", "procedure": "To further assess whether the Sec residue in TrxR1 was the modified site of PepE. The BIAM labeling assay was performed according to previous report. Briefly, 100 μM BIAM stock solution in 100 mM Tris-HCl, 1 mM EDTA buffer (pH = 6.5) was freshly prepared before each test. The TrxR1 protein (1 μM) was incubated with different concentrations (1, 5, 10 μM) of PepE or 5 μM of DNCB (positive control) and DMSO (negative control) in 50 mM Tris-HCl, 1 mM EDTA buffer (pH = 7.5) and 400 μM NADPH at 37 °C. After incubation, 4 μL of the reaction mixture was withdrawn and added mixed with 20 μM of BIAM solution in 100 mM Tris-HCl, 1 mM EDTA assay buffer (pH = 6.5) for 30 min at 37 °C to allow selective alkylation of free Sec residues. The reaction was stopped by adding the IAA solution (final concentration 50 mM). The samples were then denatured in SDS buffer, boiled and subjected to SDS-PAGE and western-blotting on a 7.5% gel, and the separated proteins were transferred to nitrocellulose membrane. The enzymes labeled with BIAM were detected with HRP-conjugated streptavidin and enhanced chemiluminescence detection. The bands were analyzed using Gel-pro 32 software."}, "[2]": {"target": "T2, NADPH-reduced TrxR1 (Homo sapiens, UniProt Q16881)", "T2 construct": "purchased Abcam ab204206", "T2 sequence (Q16881 1-499 isoform Q16881-5)": "T1 sequence (Q16881 1-499 isoform Q16881-5)", "test": "Bio-layer interferometry (BLI) binding assay, TrxR1", "settings": "NADPH-reduced TrxR1 0.9 μM, 25 °C", "procedure": "The binding kinetics of PepE or PepA to purified recombinant proteins were determined using BLI on an Octet RED 96 system (ForteBio, Shanghai, China) following the manufacturer's protocol. All interaction analyses were performed at 25 °C in PBS with 0.2% DMSO. Purified recombinant proteins (0.9 μM, the TrxR1 full length and TrxR1 protein fragment were pre-reduced by 400 μM of NADPH before test) were pre-labeled with biotin using […] (Abcam) following the manufacturer's instruction. Loading of the Dip and Read Super Streptavidin (SSA) Biosensors (ForteBio) were conducted by exposing biotinylated proteins to biosensor tips for 2 h. The 96-well microplates used in the Octet were filled with 200 μL sample or buffer per well and agitated at 1000 rpm. The loaded biosensors were washed in buffer for 600 s and transferred to wells containing PepE at concentrations of 0.625, 1.25, 2.5, 5, and 10 μM or PepA at concentrations of 1.25, 2.5, 5, 10 and 20 μM, respectively, in the buffer. […] Reference measurements were conducted using the buffer instead of PepE (or PepA). A parallel set of SA unloaded biosensors was prepared to act as a control. The sample-sensorgrams were corrected by subtracting the double reference curve. Kinetic parameters (Kon and Kdis) and affinity (KD) were determined from a global fit to a 1:1 binding model of the data between proteins and PepE using Octet software (ForteBio)."}, "[3]": {"tested_on": "TrxR1", "settings": "read-out: TrxR1 inhibition IC50; cited from earlier work"}, "[4]": {"tested_on": "CD34+ NBM cells and hBMSCs", "test": "CCK-8 cell viability assay on normal CD34+ NBM cells and hBMSCs", "assay_type": "cell-based, human", "settings": "48 h, CCK-8", "procedure": "(§1) The mononuclear cells were further enriched for CD34 positive cells using the MACS CD34 MicroBead kit following the manufacturer's protocol. Enriched CD34 cell-purity was measured by flow cytometry-based quantification of cells stained using an anti-CD34-FITC antigen. Isolated CD34^+ cells were pre-incubated in the IMDM-based serum-free media for 1 h before the addition of drugs. PepE was dissolved in DMSO to make a 100 mM stock solution and stored in aliquots at – 20 °C. The 100 mM stock solution was diluted with DMSO to 10 mM and then diluted with PBS to 1 mM before treating the cells at the indicated concentrations. DMAPE and Ara-C were diluted in PBS to 1 mM concentration before use.\n(§2) Unless otherwise mentioned, 2 × 10^4 cells were seeded at 96-well plates (Corning, New York, USA) in the IMDM-based serum-free media for 1 h. Then, the cells were incubated with different concentrations of PepE and DMAPE at 37 °C in a 5% CO2 incubator for 48 h. At the end of the treatment, 10 μL CCK-8 solution was added to each well and incubated for an additional 2 h at 37 °C, and the absorbance at 450 nm was measured with a microplate reader (Thermo Scientific, Multiskan GO, Finland). Inhibition ratio (%) was calculated as [(absorbance of control − absorbance of the test sample)/absorbance of control] x 100%."}, "[5]": {"tested_on": "primary CD34+ AML cells", "test": "CCK-8 cell viability assay on primary CD34+ AML cells", "assay_type": "cell-based, human", "settings": "48 h, CCK-8", "procedure": "as §1, §2"}, "[6]": {"tested_on": "KG-1a CD34+ cells", "test": "KG-1a-Luc CD34+ xenograft in NOD/SCID mice, bioluminescence", "assay_type": "in vivo", "settings": "50 mg/kg i.g. daily, 5 weeks", "procedure": "Six-week-old female NOD-SCID mice (obtained from the model animal research center of Nanjing University, Nanjing, China) were acclimated for 1 week and housed in groups of five. All animal studies were conducted under the guidelines approved by the Animal Care and Use Committee of the Nanjing University of Chinese Medicine (Nanjing, China). The mice were sublethally irradiated with 2.7 Gy before transplantation.\nKG-1a cells tagged with a luciferase reporter gene (KG-1a-Luc) were obtained from Cobioer biotechnology Inc. (Nanjing, Jiangsu, China) and cultured in 90% IMDM supplemented with 10% FBS, 0.05 mM 2-Mercaptoethanol, and 1 μg/mL Puromycin, and grown at 37 °C in a 5% CO2 humidified incubator. CD34 positive cells were enriched (following the 2.3 method) and injected via the tail vein in a final volume of 0.2 mL PBS with 0.5% FBS. For analyzing the luciferase signal, 5 × 10^6 cells KG-1a-Luc cells were used for each recipient animal. Seven days after transplantation, mice with KG-1a-Luc implants were subjected to bioluminescent analysis based on the luciferase signal. Briefly, mice received D-luciferin phosphate solution (100 mg/kg) intravenously 10 min prior to imaging. They were then anesthetized with isoflurane inhalation and imaged using a Xenogen IVIS scanner (PerkinElmer, Waltham, MA, USA). The next day, mice showing successful implantations were randomly divided into the control, DMAPE low dose, DMAPE high dose, and Ara-C treatment groups (n = 5 in each group), which received daily i. g. saline buffer, DMAPE phosphate salt 25 mg/kg, DMAPE phosphate salt 50 mg/kg and Ara-C (50 mg/kg), respectively. The growth of KG-1a-Luc cells was monitored every week by their luciferase signal. Five weeks after the implantation, all mice were sacrificed and their livers, kidneys, and bone marrow were excised for ex vivo bioluminescent imaging. The bioluminescent signal intensity was all quantified using the Living Image software (version 4.2, Carliper Life Science, Inc., Hopkinton, MA, USA) and is presented as photons/second/cm^2/sr (sr denotes steradian)."}}, "note": "Entries after “also recorded” stand apart in the source; their conditions may differ."}
{"smiles": "O=[N+]([O-])c1ccc(Cl)c([N+](=O)[O-])c1", "note": "[DNCB, 1-chloro-2,4-dinitrobenzene, reference compound]", "values": [{"measurement": "BIAM alkylation of Sec residue of TrxR1", "setting": "[1]", "result": "significantly block"}]}
{"smiles": "COc1cc(C(c2cc(OC)c3c(c2)OCO3)[C@@H]2COC(=O)[C@H]2C)cc2c1OCO2", "note": "[PepA, Peperomin A, reference compound]", "values": [{"measurement": "Kd", "setting": "[2]", "result": 111000, "unit": "nM"}]}
{"smiles": "CC(C)=CC[C@@H](O)C1=CC(=O)c2c(O)ccc(O)c2C1=O", "note": "[shikonin]", "values": [{"measurement": "IC50", "setting": "[3]", "result": "~1600", "unit": "nM"}]}
{"smiles": "Nc1ccn([C@@H]2O[C@H](CO)[C@@H](O)[C@@H]2O)c(=O)n1", "note": "[Ara-C, Cytarabine, reference compound]", "values": [{"measurement": "toxicity on NBM and hBMSC cells in side-by-side comparison", "setting": "[4]", "result": "more toxic than PepE and DMAPE"}, {"measurement": "toxicity against AML progenitor cells", "setting": "[5]", "result": "no apparent toxicity"}, {"measurement": "in vivo efficacy against KG-1a CD34+ cells", "setting": "[6]", "result": "not obvious; also recorded: not significant"}]}
{"smiles": "C=C1C(=O)O[C@H]2[C@H]1CC/C(C)=C/CC[C@@]1(C)O[C@@H]21", "note": "[parthenolide, Parthenolide]", "values": [{"measurement": "IC50", "setting": "[3]", "result": "~3000", "unit": "nM"}]}
